According to patent US20250281649A1, “PROBE DIRECTED TO ENZYME ALDH1A3 AND USE THEREOF IN THE DIAGNOSIS OF GLIOBLASTOMA” (Universita' Degli Studi Del Piemonte Orientale "A. Avogadro", priority 2021, published 2025):

What was measured:
ALDH1A2 = target: T1, ALDH1A2 (Homo sapiens, UniProt O94788); assay: IC50 evaluation, NADH formation at 340 nm (Tecan SUNRISE); type: biochemical; settings: 20 mM acetaldehyde, 500 μM NAD+, 15% DMSO, 2.7 μM isoenzyme, read-out: IC50
T1 construct: His-tag; made in house; host or cells: bacterial cells
T1 sequence (O94788 1-518): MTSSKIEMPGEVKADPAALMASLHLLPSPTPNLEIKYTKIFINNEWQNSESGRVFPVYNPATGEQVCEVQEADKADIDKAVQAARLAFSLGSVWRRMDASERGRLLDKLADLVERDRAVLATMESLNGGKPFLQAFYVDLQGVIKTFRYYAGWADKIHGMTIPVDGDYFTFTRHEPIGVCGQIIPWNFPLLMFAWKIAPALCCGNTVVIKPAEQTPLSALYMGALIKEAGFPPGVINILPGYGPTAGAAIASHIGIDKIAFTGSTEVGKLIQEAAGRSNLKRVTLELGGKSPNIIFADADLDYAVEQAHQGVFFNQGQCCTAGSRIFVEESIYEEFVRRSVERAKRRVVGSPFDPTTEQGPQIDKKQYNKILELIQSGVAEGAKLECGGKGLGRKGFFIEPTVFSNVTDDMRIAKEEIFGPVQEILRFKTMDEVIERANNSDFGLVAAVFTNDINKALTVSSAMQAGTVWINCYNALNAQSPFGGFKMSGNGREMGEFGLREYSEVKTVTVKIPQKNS
Experimental: (§1) A common protocol to express and purify all three members of the ALDHIA subfamily has been optimized. Briefly, induced cells, collected by centrifugation, were re-suspended in an appropriate volume of lysis buffer (50 mM Na2HPO4, 300 mM NaCl, 1 mM β-mercaptoethanol, 20 mM imidazole, pH 7.5) added of benzonase nuclease (250 U/μL) and Protease inhibitor cocktail from SIGMA. After ultracentrifugation, the clarified sample was purified by a His-tag affinity chromatography followed by size-exclusion chromatography, using an AKTA FPLC system, at 4° C. To evaluate the purity and homogeneity of the protein, after each purification step, eluted d fractions were analyzed by SDS-PAGE and the protein quantification was always determined by Bradford protein assay.
IC50 evaluation: on a Tecan—SUNRISE, probe 13 was tested in a serial dilution series from 200 μM to 3, 125 μM, against all the three isoenzymes. The recipe of reaction buffer was: 20 mM Tris HCl pH=8, 150 mM KCl, 1 mM B-mercaptoethanol, 500 μM NAD^+, 15% DMSO fixed, 20 mM acetaldehyde and 2.7 μM each isoenzyme. The analysis was conducted measuring the NADH formation, that has a specific absorbance wavelength (340 nm). The test was performed in triplicate with all the three isoenzymes.

ALDH1A3 = target: T2, ALDH1A3 (Homo sapiens, UniProt P47895); assay: Ki evaluation, competitive inhibition vs acetaldehyde, NADH formation; type: biochemical; settings: competitive vs acetaldehyde 1-20 mM
T2 construct: His-tag; made in house; host or cells: bacterial cells
T2 sequence (P47895 1-512): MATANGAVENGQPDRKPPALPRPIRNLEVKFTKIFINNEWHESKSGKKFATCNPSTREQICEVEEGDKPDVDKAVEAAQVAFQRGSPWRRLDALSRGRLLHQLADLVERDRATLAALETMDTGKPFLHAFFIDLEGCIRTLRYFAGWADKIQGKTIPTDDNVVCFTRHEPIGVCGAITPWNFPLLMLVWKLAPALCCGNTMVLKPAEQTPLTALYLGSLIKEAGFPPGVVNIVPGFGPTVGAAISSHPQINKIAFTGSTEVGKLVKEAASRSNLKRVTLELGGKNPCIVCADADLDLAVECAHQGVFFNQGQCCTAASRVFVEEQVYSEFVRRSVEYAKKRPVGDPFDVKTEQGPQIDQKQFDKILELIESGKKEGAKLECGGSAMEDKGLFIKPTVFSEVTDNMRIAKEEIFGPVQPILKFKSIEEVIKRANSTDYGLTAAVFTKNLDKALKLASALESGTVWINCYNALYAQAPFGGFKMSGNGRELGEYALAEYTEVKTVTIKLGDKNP
Experimental: as §1
Ki evaluation: on a Tecan—SUNRISE, probe 13 was tested as a possible competitive inhibitor, at a variable concentration (200, 100, 50, 10, 1 and 0 μM). In the same plate, different the acetaldehyde was tested at concentrations (1, 2.5, 5, 10, 15 and 20 mM) to describe the competitive mechanism. The recipe of the buffer reaction was the same as described before. The analysis was conducted measuring the NADH formation, that has a specific absorbance wavelength (340 nm). The test was performed in triplicate only with the ALDH1A3.

GL261 cells = assay: Penetration into GL261 cells in vitro; type: cell-based, mouse
Source text: We used in vitro and in vivo cells from a mouse high grade glioma cell line, GL261, Briefly, twenty-four 2- to 3-month-old female C57BIC mice were stereotactically implanted under deep general anesthesia (isoflurane supplemented with nitrous oxide) with 1×10^5 GL261 glioblastoma cells. The cells were stereotactically inoculated through a burr hole by a Hamilton syringe into the left striatum (coordinates: 1 mm anteroposterior and 1 mm lateral from bregma, at a depth of 3 mm). All experimental procedures were conducted in accordance with the European Communities Council Directive of 24 Nov. 1986 (86/609 EEC), Recommendation 18/06/2007, Dir. 2010/63/UE, and the Italian law for care and use of experimental animals (DL116/92) and were approved by the Italian Ministry of Health (prot. E669C.15) and the Bioethical Committee of the University of Turin. All animals were housed under a 12-hour light-dark cycle in an environmentally controlled room. All experiments were designed to minimize the numbers of animals used and their discomfort. In each experiment, animals with tumors were allocated to two groups and i.p. injected with probe 14 or probe 13. All drugs were administered intraperitoneally, and treatments were started days 6 after tumor implantation. […] Quantitative and phenotypic evaluations were made on images acquired with a Leica TCS SP5 confocal microscope.

`COc1cc(/C=C/C(=O)/C=C(O)/C=C/c2ccc(OCc3cn(CCOc4ccc(C=O)cc4)nn3)c(OC)c2)ccc1O` [Compound 13] was tested, and the IC50 (ALDH1A2) was 131 µM and the Ki (ALDH1A3) was 0.9 µM.

`CCOC(=O)Cn1cc(COc2ccc(/C=C/C(O)=C/C(=O)/C=C/c3ccc(O)c(OC)c3)cc2OC)nn1` [Compound 14] was tested, and the IC50 (ALDH1A2) was 92.8 µM and the “penetration into cells in vitro” value (GL261 cells) was “penetrates GL261 cells in vitro”.
